Values quoted from earlier work, collected in PubChem BioAssay AID1259409 (Chemical Carcinogenesis Research Information System (CCRIS), 2018).
Values joined by “and” are separate entries in the source; they are usually repeats but may differ in a detail not shown here. Identical values can stand only once.

Test system: rodent chemically induced tumor inhibition, incidence and multiplicity
Assay: CCRIS tumor inhibitor studies
Conditions: Promoter: NONE USED

## CCN(CC)C(=S)SSC(=S)N(CC)CC
Carcinogen: 1,2-DIMETHYLHYDRAZINE, 540-73-8, Dose [Inhibitor]: 0, 500 MG/KG BW IN CORN OIL 5 D/WK FOR 20 WK BEGINNING 2 HR POST FIRST CARCINOGEN DOSE (STUDY DURATION: 18 MO), Route [Inhibitor]: GAVAGE, Species: RAT, Strain/Sex: WISTAR/MALE, Target Tissue: Type of Lesion: INTESTINE: TUMOR, Dose [Carcinogen]: 20 MG/KG BW 1/WK FOR 20 WK
  tumour outcome (control, treated, inhibition, significance): 100%, 58%, 42%, not calculated
Carcinogen: 1,2-DIMETHYLHYDRAZINE, 540-73-8, Dose [Inhibitor]: 0, 500 MG/KG BW IN CORN OIL 5 D/WK FOR 20 WK BEGINNING 2 HR POST FIRST CARCINOGEN DOSE (STUDY DURATION: 18 MO), Route [Inhibitor]: GAVAGE, Species: RAT, Strain/Sex: WISTAR/MALE, Target Tissue: Type of Lesion: ZYMBAL GLAND: TUMOR, Dose [Carcinogen]: 20 MG/KG BW 1/WK FOR 20 WK
  tumour outcome (control, treated, inhibition, significance): 52%, 4%, 92%, not calculated
Carcinogen: 1,2-DIMETHYLHYDRAZINE, 540-73-8, Dose [Inhibitor]: 0, 500 MG/KG BW IN CORN OIL 5 D/WK FOR 20 WK BEGINNING 15 D PRIOR TO CARCINOGEN TREATMENT (STUDY DURATION: 18 MO), Route [Inhibitor]: GAVAGE, Species: RAT, Strain/Sex: WISTAR/MALE, Target Tissue: Type of Lesion: INTESTINE: TUMOR, Dose [Carcinogen]: 20 MG/KG BW 1/WK FOR 20 WK
  tumour outcome (control, treated, inhibition, significance): 100%, 0%, 100%, not calculated
Carcinogen: 1,2-DIMETHYLHYDRAZINE, 540-73-8, Dose [Inhibitor]: 0, 500 MG/KG BW IN CORN OIL 5 D/WK FOR 20 WK BEGINNING 15 D PRIOR TO CARCINOGEN TREATMENT (STUDY DURATION: 18 MO), Route [Inhibitor]: GAVAGE, Species: RAT, Strain/Sex: WISTAR/MALE, Target Tissue: Type of Lesion: ZYMBAL GLAND: TUMOR, Dose [Carcinogen]: 20 MG/KG BW 1/WK FOR 20 WK
  tumour outcome (control, treated, inhibition, significance): 68%, 0%, 100%, not calculated
Carcinogen: 1,2-DIMETHYLHYDRAZINE, 540-73-8, Dose [Inhibitor]: 5 MG/G IN DIET FOR 17 WK BEGINNING 8 D PRIOR TO CARCINOGEN (STUDY DURATION: 36 WK), Route [Inhibitor]: ORAL, Species: MOUSE, Strain/Sex: C-F1/FEMALE, Target Tissue: Type of Lesion: LARGE INTESTINE: TUMOR, Dose [Carcinogen]: 0.7 MG IN 0.2 ML EDTA SOLUTION 1/WK FOR 16 WK
  tumour outcome (control, treated, inhibition, significance): 14/14 (100%), 0/20 (0%), 100%, not calculated
Carcinogen: 7,12-DIMETHYLBENZ[A]ANTHRACENE, 57-97-6, Dose [Inhibitor]: 0.03 NMOL/G DIET DAILY FOR 17 WK STARTING 1 WK PRIOR TO CARCINOGEN TREATMENT AND CONTINUING THROUGH THE END OF THE STUDY, Route [Inhibitor]: ORAL, Species: RAT, Strain/Sex: SPRAGUE-DAWLEY/FEMALE, Target Tissue: Type of Lesion: MAMMARY GLAND: TUMOR, Dose [Carcinogen]: 12 MG IN 1 ML OLIVE OIL ONCE
  tumour outcome (control, treated, inhibition, significance): 61%, 22%, 64%, p<0.05 and 79%, 8%, 90%, p<0.001
Carcinogen: 7,12-DIMETHYLBENZ[A]ANTHRACENE, 57-97-6, Dose [Inhibitor]: 100 MG IN 1 ML CARBOWAX 400 SOLUTION ONCE 24 HR BEFORE CARCINOGEN TREATMENT FOLLOWED BY 16 WK OBSERVATION PERIOD (STUDY, Route [Inhibitor]: GAVAGE, Species: RAT, Strain/Sex: SPRAGUE-DAWLEY/FEMALE, Target Tissue: Type of Lesion: MAMMARY GLAND: TUMOR, Dose [Carcinogen]: 12 MG IN 1 ML OLIVE OIL ONCE
  tumour outcome (control, treated, inhibition, significance): 59%, 11%, 81%, p<0.01
Carcinogen: BENZO[A]PYENE, 50-32-8, Dose [Inhibitor]: 0.03 MMOL/G DIET DAILY FOR 6 WK CONCURRENT WITH CARCINOGEN TREATMENT FOLLOWED BY 14 WK ON STANDARD DIET (STUDY DURATION:, Route [Inhibitor]: ORAL, Species: MOUSE, Strain/Sex: ICR/FEMALE, Target Tissue: Type of Lesion: FORESTOMACH: NEOPLASM, Dose [Carcinogen]: 0.3 MG/G IN DIET DAILY FOR 6 WK
  tumour outcome (control, treated, inhibition, significance): 40%, 0%, 100%, not calculated
Carcinogen: BENZO[A]PYENE, 50-32-8, Dose [Inhibitor]: 0.03 MMOL/G DIET DAILY FOR 25 D STARTING 7 D PRIOR TO FIRST CARCINOGEN DOSE AND THEN PLACED ON STANDARD DIET THROUGH THE, Route [Inhibitor]: ORAL, Species: MOUSE, Strain/Sex: STRAIN-A/FEMALE, Target Tissue: Type of Lesion: LUNG: ADENOMA, Dose [Carcinogen]: 3 MG IN 0.5 ML SESAME OIL ADMINISTERED 7 AND 21 D AFTER START OF AGENT
  tumour outcome (control, treated, inhibition, significance): 12/12 (100%), 12/12 (100%), 0%, not significant
Carcinogen: BRACKEN FERN, Dose [Inhibitor]: 5 MG/G DIET, DAILY FOR 12 MO SIMULTANEOUS WITH CARCINOGEN (STUDY DURATION: 12 MO), Route [Inhibitor]: ORAL, Species: RAT, Strain/Sex: ALBINO/?, Target Tissue: Type of Lesion: INTESTINE: TUMOR, Dose [Carcinogen]: 0.33 G IN DIET DAILY FOR 12 MO
  tumour outcome (control, treated, inhibition, significance): 30/30 (100%), 12/16 (75%), 25%, p<0.01
Carcinogen: BRACKEN FERN, Dose [Inhibitor]: 5 MG/G DIET, DAILY FOR 12 MO SIMULTANEOUS WITH CARCINOGEN (STUDY DURATION: 12 MO), Route [Inhibitor]: ORAL, Species: RAT, Strain/Sex: ALBINO/?, Target Tissue: Type of Lesion: URINARY BLADDER: TUMOR, Dose [Carcinogen]: 0.33 G IN DIET, DAILY FOR 12 MO
  tumour outcome (control, treated, inhibition, significance): 22/30 (73%), 10/16 (62%), 15%, not significant
Carcinogen: TRANS-5-AMINO-3-[2-(5-NITRO-2-FURYL)VINYL]-1,2,4-OXADIAZOLE;SQL8506, 28754-68-9, Carcinogen: TRANS-5-AMINO-3-[2-(5-NITRO-2-FURYL)VINYL]-1,2,4-OXADIAZOLE;SQL8506, 28754-68-9, Dose [Inhibitor]: 1% IN DIET DAILY FOR 11 D BEGINNING 3 D BEFORE, DURING AND 3 D AFTER EACH OF 3 CARCINOGEN TREATMENTS (STUDY DURATION: LI, Route [Inhibitor]: ORAL, Species: MOUSE, Strain/Sex: CD-1/FEMALE, Target Tissue: Type of Lesion: HEMATOPOIETIC SYSTEM: MYELOID LEUKEMIA, Dose [Carcinogen]: 1 G/KG 2/D FOR 5 D EVERY 4 WK FOR 3 COURSES OF TREATMENT
  tumour outcome (control, treated, inhibition, significance): 7/137 (5%), 0/34 (0%), 100%, not calculated
Carcinogen: TRANS-5-AMINO-3-[2-(5-NITRO-2-FURYL)VINYL]-1,2,4-OXADIAZOLE;SQL8506, 28754-68-9, Carcinogen: TRANS-5-AMINO-3-[2-(5-NITRO-2-FURYL)VINYL]-1,2,4-OXADIAZOLE;SQL8506, 28754-68-9, Dose [Inhibitor]: 1% IN DIET DAILY FOR 11 D BEGINNING 3 D BEFORE, DURING AND 3 D AFTER EACH OF 3 CARCINOGEN TREATMENTS (STUDY DURATION: LI, Route [Inhibitor]: ORAL, Species: MOUSE, Strain/Sex: CD-1/FEMALE, Target Tissue: Type of Lesion: LYMPHOID TISSUE: NONTHYMIC LYMPHOMA, Dose [Carcinogen]: 1 G/KG 2/D FOR 5 D EVERY 4 WK FOR 3 COURSES OF TREATMENT
  tumour outcome (control, treated, inhibition, significance): 8/137 (6%), 0/34 (0%), 100%, not calculated
Carcinogen: TRANS-5-AMINO-3-[2-(5-NITRO-2-FURYL)VINYL]-1,2,4-OXADIAZOLE;SQL8506, 28754-68-9, Carcinogen: TRANS-5-AMINO-3-[2-(5-NITRO-2-FURYL)VINYL]-1,2,4-OXADIAZOLE;SQL8506, 28754-68-9, Dose [Inhibitor]: 1% IN DIET DAILY FOR 11 D BEGINNING 3 D BEFORE, DURING AND 3 D AFTER TREATMENT EACH OF 3 CARCINOGEN TREATMENTS (STUDY DU, Route [Inhibitor]: ORAL, Species: MOUSE, Strain/Sex: CD-1/FEMALE, Target Tissue: Type of Lesion: STOMACH: SQUAMOUS CARCINOMA, Dose [Carcinogen]: 1 G/KG 2/D FOR 5 D EVERY 4 WK FOR 3 COURSES OF TREATMENT
  tumour outcome (control, treated, inhibition, significance): 60/137 (44%), 12/34 (35%), 20%, not calculated
Carcinogen: URETHANE, 51-79-6, Dose [Inhibitor]: 0, 500 MG/KG IN CORN OIL AT 24 HR AND 1 HR PRIOR TO CARCINOGEN DOSE (STUDY DURATION: 4 MO), Route [Inhibitor]: GAVAGE, Species: MOUSE, Strain/Sex: BALB/MALE, FEMALE, Target Tissue: Type of Lesion: LUNG: TUMOR, Dose [Carcinogen]: 1 G/KG IN 0.9% SALINE ONCE
  tumour outcome (control, treated, inhibition, significance): 100%, 63%, 37%, not significant
Carcinogen: URETHANE, 51-79-6, Dose [Inhibitor]: 0, 500 MG/KG IN CORN OIL FOR 4 D BEGINNING 4 D POST CARCINOGEN DOSE (STUDY DURATION: 4 MO), Route [Inhibitor]: GAVAGE, Species: MOUSE, Strain/Sex: BALB/MALE, FEMALE, Target Tissue: Type of Lesion: LUNG: TUMOR, Dose [Carcinogen]: 1 G/KG IN 0.9% SALINE ONCE
  tumour outcome (control, treated, inhibition, significance): 100%, 94%, 6%, not significant
